Results: US20190053492A1, “SUBSTITUTED PYRIDINE COMPOUNDS AS PESTICIDES” (Bayer CropScience Aktiengesellschaft, priority 2016, published 2019)
Read-outs that look alike come from different tables or passages of the source.

Legend:
[1] = log P by HPLC on reversed-phase column (C 18), EEC Directive 79/831 Annex V.A8; assay type: physicochemical; conditions: 55° C.; for LOGP_HCOOH: log P (HCOOH); for chromatographic logP: reversed-phase HPLC column (C 18)
Protocol: Temperature: 55° C. […] Called log P (HCOOH) in the table. […] Called log P (neutral) in the table.

[2] = system: Spodoptera frugiperda; assay: Spodoptera frugiperda spray test; assay type: in vivo; conditions: after 7 days, maize leaf discs
Summary of the method: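 Efficacy in % was scored at 7 days against armyworm caterpillars placed on dried, compound-sprayed Zea mays leaf discs. Compound was dissolved in acetone/dimethylformamide and diluted in water with 1000 ppm alkylaryl polyglycol ether. 100% means all caterpillars were killed.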

[3] = system: Phaedon cochleariae; assay: Phaedon cochleariae spray test; assay type: in vivo; conditions: after 7 days, Chinese cabbage leaf discs
Protocol: Phaedon cochleariae—Spray Test
Solvent: 78.0 parts by weight of acetone • • 1.5 parts by weight of dimethylformamide
Emulsifier: alkylaryl polyglycol ether
To produce a suitable active ingredient formulation, 1 part by weight of active ingredient is dissolved with the specified parts by weight of solvent and made up with water containing an emulsifier concentration of 1000 ppm until the desired concentration is attained. To produce further test concentrations, the formulation is diluted with emulsifier-containing water.
Discs of Chinese cabbage leaves (Brassica pekinensis) are sprayed with an active ingredient formulation of the desired concentration and, after drying, populated with larvae of the mustard beetle (Phaedon cochleariae).
After 7 days, the efficacy in % is determined. 100% means that all the beetle larvae have been killed; 0% means that no beetle larvae have been killed.

[4] = acidic range at pH 2.7, 0.1% aqueous formic acid and acetonitrile, HPLC on reversed-phase column (C 18)
[5] = log P, neutral range, HPLC on reversed-phase column (C 18)
[6] = acidic range pH 2.7, 0.1% aqueous formic acid and acetonitrile, reversed-phase column (C 18)
[7] = log P (neutral), HPLC reversed-phase column (C 18)

| Structure (SMILES) | LOGP_HCOOH [1, 4] | LOGP_NEUTRAL [1, 5] | efficacy (caterpillars killed) ([2]; application rate 100 g/ha) | efficacy (caterpillars killed) ([2]; application rate 500 g/ha) | efficacy (beetle larvae killed) ([3]; application rate 100 g/ha) | efficacy (beetle larvae killed) ([3]; application rate 500 g/ha) | LOGP_HCOOH [1, 6] | chromatographic logP ([1]; pH 2.7, log P (HCOOH), acidic range pH 2.7, 0.1% aqueous formic acid and acetonitrile, reversed-phase column (C 18), read-out: LOGP_HCOOH) | chromatographic logP ([1]; pH 7.8, LC-MS neutral range, pH 7.8, ammonium hydrogencarbonate/acetonitrile, read-out: log P (neutral)) | pest or weed control at 500 g/ha ([2]; Spodoptera frugiperda, foliar, 168 h, application rate 500 g/ha, read-out: efficacy (caterpillars killed)) | pest or weed control at 500 g/ha ([3]; Phaedon cochleariae, foliar, 168 h, application rate 500 g/ha, read-out: efficacy (beetle larvae killed)) | LOGP_NEUTRAL [1, 7] |
| --- | --- | --- | --- | --- | --- | --- | --- | --- | --- | --- | --- | --- |
| CC(NC(=O)c1cc(-c2ccc(OC(F)(F)F)cc2)cc(NC(=O)C2CC2)n1)c1ccc(C#N)cc1 (racemic) [Example I-158] | 4.17 | 4.02 | 100% | 100% | 83% | 100% | – | – | – | – | – | – |
| O=C(NCc1ccccn1)c1cc(-c2ccc(C(F)(F)F)cc2)cc(NC(=O)C2CC2)n1 [Example I-007] | – | 2.75 | – | 83% | – | 100% | 3.19 | – | – | – | – | – |
| O=C(NCC(F)(F)F)c1cc(-c2ccc(C(F)(F)F)cc2)cc(NC(=O)C2CC2)n1 [Example I-009] | – | 3.77 | – | 100% | – | 100% | 3.82 | – | – | – | – | – |
| O=C(NCc1ccc(Cl)nc1)c1cc(-c2ccc(C(F)(F)F)cc2)cc(NC(=O)C2CC2)n1 [Example I-011] | – | 3.55 | – | 100% | 100% | 100% | 3.67 | – | – | – | – | – |
| O=C(NCC1CC1)c1cc(-c2ccc(C(F)(F)F)cc2)cc(NC(=O)C2CC2)n1 [Example I-012] | – | 3.66 | – | 100% | 100% | 100% | 3.78 | – | – | – | – | – |
| CCNC(=O)c1cc(-c2ccc(C(F)(F)F)cc2)cc(NC(=O)C2CC2)n1 [Example I-016] | – | 3.23 | – | 100% | – | 83% | 3.30 | – | – | – | – | – |
| CC(C)NC(=O)c1cc(-c2ccc(C(F)(F)F)cc2)cc(NC(=O)C2CC2)n1 [Example I-018] | – | 3.68 | 83% | 100% | – | 100% | 2.65 | – | – | – | – | – |
| N#Cc1ccc(NC(=O)c2cc(-c3ccc(C(F)(F)F)cc3)cc(NC(=O)C3CC3)n2)cc1 [Example I-019] | – | 4.33 | – | 100% | – | 100% | 4.40 | – | – | – | – | – |
| N#Cc1ccc(CNC(=O)c2cc(-c3ccc(Cl)cc3)cc(NC(=O)C3CC3)n2)cc1 [Example I-020, 4-(4-Chlorophenyl)-N-(4-cyanobenzyl)-6-[(cyclopropylcarbonyl)amino]pyridine-2-carboxamide] | – | 3.54 | – | – | – | – | – | 3.6 | 3.54 | 100% | 100% | – |
| N#Cc1ccc(NC(=O)c2cc(-c3ccc(Cl)cc3)cc(NC(=O)C3CC3)n2)cc1 [Example I-022] | – | 4.29 | 100% | 100% | 83% | 100% | 4.34 | – | – | – | – | – |
| CC(NC(=O)c1cc(-c2ccc(C(F)(F)F)cc2)cc(NC(=O)C2CC2)n1)C1CC1 (stereo not shown) [Example I-031] | – | 4.06 | – | 100% | – | 100% | 4.17 | – | – | – | – | – |
| O=C(NC1CC1)c1cc(-c2ccc(I)cc2)cc(NC(=O)C2CC2)n1 [Example I-035] | – | 3.39 | – | 100% | – | 100% | 3.48 | – | – | – | – | – |
| CCCCNC(=O)c1cc(-c2ccc(C(F)(F)F)cc2)cc(NC(=O)C2CC2)n1 [Example I-037] | – | 3.98 | 83% | 100% | – | 83% | 4.05 | – | – | – | – | – |
| CC(NC(=O)c1cc(-c2ccc(C(F)(F)F)cc2)cc(N(C(=O)C2CC2)C(=O)C2CC2)n1)c1ccc(C#N)cc1 (stereo not shown) [Example I-039] | – | 4.31 | 100% | 100% | 100% | 100% | 4.36 | – | – | – | – | – |
| N#Cc1ccc(CNC(=O)c2cc(-c3ccc(C(F)(F)F)cc3)cc(NC(=O)C3CC3)n2)cn1 [Example I-042] | – | 3.26 | 83% | 100% | 100% | 100% | 3.36 | – | – | – | – | – |
| N#Cc1ccc(CNC(=O)c2cc(-c3ccc(C(F)(F)F)cc3)cc(NC(=O)C3CCC3)n2)cc1 [Example I-045] | – | 3.99 | – | 100% | 100% | 83% | 4.14 | – | – | – | – | – |
| N#Cc1ccc(CNC(=O)c2cc(-c3ccc(C(F)(F)F)cc3)cc(NC(=O)CC3CC3)n2)cc1 [Example I-055] | – | 3.82 | 100% | 100% | – | 100% | 3.92 | – | – | – | – | – |
| O=C(NCc1ccc(Cl)c(F)c1)c1cc(-c2ccc(C(F)(F)F)cc2)cc(NC(=O)C2CC2)n1 [Example I-056] | – | 4.44 | 100% | 100% | – | 100% | 4.57 | – | – | – | – | – |
| O=C(NCc1ccc([N+](=O)[O-])cc1)c1cc(-c2ccc(C(F)(F)C(F)(F)F)c(F)c2)cc(NC(=O)C2CC2)n1 [Example I-209] | 4.34 | 4.33 | – | – | 100% | – | – | – | – | – | – | – |
| N#Cc1ccc(CNC(=O)c2cc(-c3ccc(OC(F)(F)F)cc3)cc(NC(=O)C3(C#N)CC3)n2)cc1 [Example I-210] | 4.04 | 3.88 | – | – | 83% | 83% | – | – | – | – | – | – |
| N#Cc1ccc(CNC(=O)c2cc(-c3ccc(C(F)F)c(F)c3)cc(NC(=O)C3CC3)n2)cc1 [Example I-222] | 3.39 | 3.34 | – | – | 100% | 100% | – | – | – | – | – | – |
| N#Cc1ccc(CNC(=O)c2cc(-c3ccc(OC(F)(F)F)c(Cl)c3)cc(NC(=O)C3CC3)n2)cc1 [Example I-230] | 4.32 | 4.24 | – | – | 83% | – | – | – | – | – | – | – |
| CONC(=O)c1cc(-c2ccc(OC(F)(F)F)cc2)cc(NC(=O)C2CC2)n1 [Example I-234] | – | – | – | – | – | 100% | 2.97 | – | – | – | – | 2.89 |
| O=C(NOCC1CC1)c1cc(-c2ccc(OC(F)(F)F)cc2)cc(NC(=O)C2CC2)n1 [Example I-236] | – | – | – | – | – | 100% | 3.59 | – | – | – | – | 3.50 |
| N#CCCCONC(=O)c1cc(-c2ccc(OC(F)(F)F)cc2)cc(NC(=O)C2CC2)n1 [Example I-238] | – | – | – | – | – | 83% | 3.13 | – | – | – | – | – |
| N#Cc1ccc(CNC(=O)c2cc(-c3ccc(C(F)(F)C(F)(F)F)c(F)c3F)cc(NC(=O)C3CC3)n2)cc1 [Example I-272] | – | – | – | – | – | 83% | 4.17 | – | – | – | – | – |
